What was measured:
[1] = test system: IκBα phosphorylation in HepG2 cells; assay: Detection of phosphorylated IκBα by Western blot method under TNFα stimulation; type: cell-based; conditions: 40 ng/ml human TNFα, 20 μM MG-132
Description: Detection of Phosphorylated IκBα by Western Blot Method
[…] After 45 minutes, 40 ng/ml of human TNFα was further added. Ten minutes after the addition of the TNFα, the cells were collected, and a cell lysate was prepared by using a tip-type ultrasonic processor (Dr.Hielsher; UP-50H). After the measurement of a protein concentration using a BCA protein assay kit by Pierce (BSA standard), 30 μg of the cell lysate was applied to each lane of 12% SDS slab gel (mini gel) and an electrophoresis was carried out. After the electrophoresis, a detection of phorphorylated IκBα by Western blot method was carried out using anti-phosphorylated IκBα (Ser32) antibody (Cell Signaling) as a primary antibody and […] as a secondary antibody.

[2] = test system: NF-κB activation by forced expression of MEKK-1 in HeLa cells; assay: Inhibition of NF-κB activation by forced expression of MEKK-1 (luciferase reporter assay); type: cell-based, human; conditions: MEKK-1 forced expression, 24 hours
From the text: Measurement of Inhibition of NF-κB Activation by Forced Expression of MEKK-1
Using a transfection reagent(Effectene; QIAGEN), human uterine cancer cell strain HeLa was cotransfected with a plasumid (pNF κB-Luc Reporter Plasmid: STRATAGENE) integrated with an oligonucleotide having five tandem copies of NF-κB binding sequences(TGGGGACTTTCCGC) on an upstream region of the firefly luciferase gene(Luc) and the MEKK-1 gene-contained expression vector(pFC-MEKK: STRATAGENE) according to the QIAGEN's protocol, and the cells were incubated for 24 hours. After incubation in the presence or absence of a test compound for 24 hours, intracellular luciferase activity was measured by using PicaGene LT(TOYO INK MFG Co., Ltd.) and a chemical luminescence measurement apparatus(SPECTRAFluor Plus; TECAN). The inhibitory ratio was measured as a ratio relative to the value of the luciferase activity in the absence of the test compound.

CC(C)(C)c1nc(NC(=O)c2cc(Br)ccc2O)sc1N1CCN(c2ccccc2)CC1 [compound 201, 5-Bromo-N-{4-[(1,1-dimethyl)ethyl]-5-(4-phenylpiperazin-1-yl)thiazol-2-yl}-2-hydroxybenzamide]
Inhibition Ratio of I κ B phosphorylation(%) ([1]; Drug Concentration 2 μg/ml): 57.4%

COc1cc(/C=C/C(=O)CC(=O)/C=C/c2ccc(O)c(OC)c2)ccc1O [curcumin]
Inhibition Ratio of I κ B phosphorylation(%) ([1]; Drug Concentration 100 μM): 51.6%

O=C(Nc1cc(C(F)(F)F)cc(C(F)(F)F)c1)c1cc(-n2cccc2)ccc1O [Compound No. 71]
Inhibition Ratio of I κ B phosphorylation(%) ([1]; Drug Concentration 2 μg/ml): 29.5%

O=C(Nc1cc(C(F)(F)F)cc(C(F)(F)F)c1)c1cc(Cl)ccc1O [Compound No. 50, N-[3,5-Bis(trifluoromethyl)phenyl]-5-chloro-2-hydroxybenzamide]
Inhibitory Ratio of NF-κB Activation(%) ([2]; Drug Concentration 1 μg/ml): 92.6%
Inhibitory Ratio of NF-κB Activation(%) ([2]; Drug Concentration 10 μg/ml): 93.2%
Inhibition Ratio of I κ B phosphorylation(%) ([1]; Drug Concentration 2 μg/ml): 43.0%

CC(C)(C)c1ccc(O)c(C(=O)Nc2cc(C(F)(F)F)cc(C(F)(F)F)c2)c1 [Compound No. 56, N-[3,5-Bis(trifluoromethyl)phenyl]-5-[(1,1-dimethyl)ethyl]-2-hydroxybenzamide]
Inhibition Ratio of I κ B phosphorylation(%) ([1]; Drug Concentration 2 μg/ml): 31.3%

CC(C)(C)c1nc(NC(=O)c2cc(Br)ccc2O)sc1N1CCOCC1 [compound 199, 5-Bromo-N-{4-[(1,1-dimethyl)ethyl]-5-morpholinothiazol-2-yl}-2-hydroxybenzamide]
Inhibition Ratio of I κ B phosphorylation(%) ([1]; Drug Concentration 2 μg/ml): 47.9%

CC(C)(C)C(=O)c1sc(NC(=O)c2cc(Cl)ccc2O)nc1C(C)(C)C [compound 195, 5-Chloro-N-{4-[(1,1-dimethyl)ethyl]-5-[(2,2-dimethyl)propionyl]thiazol-2-yl}-2-hydroxybenzamide]
Inhibition Ratio of I κ B phosphorylation(%) ([1]; Drug Concentration 2 μg/ml): 63.5%

CC(=O)Oc1ccccc1C(=O)Nc1cc(Cl)cc(Cl)c1 [compound 172, 2-acetoxy-N-(3,5-dichlorophenyl)benzamide]
melting point: 218 to 219 °C

O=C(Nc1cc(C(F)(F)F)cc(C(F)(F)F)c1)c1cc(-c2ccccc2)ccc1O [Compound No. 67]
Inhibition Ratio of I κ B phosphorylation(%) ([1]; Drug Concentration 2 μg/ml): 43.8%

Source: US20060019958A1, “Immunity-related protein kinase inhibitors” (priority 2002, published 2006)
